In ChEMBL document CHEMBL4130521, “Artificial Macrocycles as Potent p53-MDM2 Inhibitors” (ACS Med Chem Lett, 2017):

Molecular target: E3 ubiquitin-protein ligase Mdm2 (Homo sapiens, UniProt Q00987)
Sequence (Q00987 whole entry): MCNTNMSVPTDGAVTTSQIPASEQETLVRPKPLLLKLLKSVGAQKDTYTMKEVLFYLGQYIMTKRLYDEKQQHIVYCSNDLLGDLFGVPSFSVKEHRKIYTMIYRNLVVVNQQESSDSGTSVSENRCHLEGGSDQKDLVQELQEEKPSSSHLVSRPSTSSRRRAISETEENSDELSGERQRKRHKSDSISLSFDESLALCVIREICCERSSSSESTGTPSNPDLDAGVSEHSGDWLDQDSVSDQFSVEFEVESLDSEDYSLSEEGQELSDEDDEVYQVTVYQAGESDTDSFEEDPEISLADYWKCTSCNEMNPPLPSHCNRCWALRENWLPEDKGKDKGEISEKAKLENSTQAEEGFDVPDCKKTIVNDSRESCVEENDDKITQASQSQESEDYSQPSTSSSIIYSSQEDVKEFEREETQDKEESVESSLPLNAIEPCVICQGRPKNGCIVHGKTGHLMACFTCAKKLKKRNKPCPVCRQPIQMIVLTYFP

Ki | SMILES
Not Active | O=C(O)c1[nH]c2cc(Cl)ccc2c1C1C(=O)NCCCCCCCCCCCCCC(=O)N1Cc1ccc(Cl)cc1 (stereo not drawn)
Not Active | O=C(O)c1[nH]c2cc(Cl)ccc2c1C1C(=O)NCCCCCCCCCCCCCC(=O)N1Cc1ccc(F)cc1 (stereo not drawn)
Not Active | CCOC(=O)c1[nH]c2cc(Cl)ccc2c1C1C(=O)NCCCCCCCCCCCCCCCCCCCC(=O)N1Cc1ccc(OCc2ccc(Cl)c(Cl)c2)cc1 (stereo not drawn)
